The data set relates to GENE-TOX genotoxicity assays, various organisms and cells. Put plainly: GENE-TOX mutagenicity studies. The following applies: for call: Assay Type: In vivo carcinogenicity studies.
Where [1] appears, read: Species/Cell Type: Mammalian polychromatic erythrocytes, Assay Type: Micronucleus test, chromosome aberrations, Assay Code: MNT+U, Dose Response: Unconfirmed positive response, Evaluation Type: Evaluation B (Post-1980).
Where [2] appears, read: Species/Cell Type: Escherichia coli polA (W3119 vs P3478), Assay Type: Rec-assay, DNA effects (bacterial DNA repair), Assay Code: RE1T, Evaluation Type: Evaluation A (Pre-1980).
Setting [3] is: Species/Cell Type: Nonhuman, Assay Type: Sister-chromatid exchange (SCE) in vitro, Assay Code: SC2+, Evaluation Type: Evaluation B (Post-1980).
The mark [4] stands for this setting: Species/Cell Type: Drosophila melanogaster, Assay Type: Sex-linked recessive lethal gene mutation, Assay Code: SRLT, Evaluation Type: Evaluation A (Pre-1980).
[5] abbreviates: Species/Cell Type: Saccharomyces cerevisiae, Assay Type: Mitotic recombination or gene conversion, Assay Code: YEH-, Evaluation Type: Evaluation A (Pre-1980).
[6] abbreviates: Species/Cell Type: Saccharomyces cerevisiae, Assay Type: Reverse gene mutation, Assay Code: YERT, Evaluation Type: Evaluation A (Pre-1980).
The mark [7] stands for this setting: Species/Cell Type: Salmonella typhimurium (one or more of the five standard strains: TA98, TA100, TA1535, TA1537, and TA1538), Assay Type: Histidine reverse gene mutation, Ames assay, Assay Code: SALT, Evaluation Type: Evaluation A (Pre-1980).
Where [8] appears, read: Species/Cell Type: Drosophila melanogaster, Assay Type: Sex-linked recessive lethal gene mutation, Assay Code: SRL+, Evaluation Type: Evaluation A (Pre-1980).
The mark [9] stands for this setting: Species/Cell Type: Salmonella typhimurium (one or more of the five standard strains: TA98, TA100, TA1535, TA1537, and TA1538), Assay Type: Histidine reverse gene mutation, Ames assay, Assay Code: SAL+, Evaluation Type: Evaluation A (Pre-1980).

Calls of active or inactive are those of the source. No rule for the calls is given here.

As to `COC(=O)C1=CCCN(C)C1`, the mutagenic call under setting [1] is “active; positive” and the mutagenic call (Species/Cell Type: Nonhuman, Assay Type: Sister-chromatid exchange (SCE) in vivo, Assay Code: SC3+, Evaluation Type: Evaluation B (Post-1980)) is “active; positive”. For `C[N+](C)(C)CCO`, the mutagenic call was “no conclusion” under setting [2] and “active; positive” under setting [3].

In the case of `CCCSP(=S)(OCC)Oc1ccc(SC)cc1` (stereo not given), under “Species/Cell Type: Nonhuman, Assay Type: Sister-chromatid exchange (SCE) in vitro, Assay Code: SC2T, Evaluation Type: Evaluation B (Post-1980)”, the mutagenic call is on record as “no conclusion”. As to `CC(=O)Nc1cc2c(cc1O)-c1ccccc1C2`, the mutagenic call reads like this: under setting [4], “no conclusion”; (Species/Cell Type: Escherichia coli polA (W3110 vs P3478), Assay Type: Rec-assay, DNA effects (bacterial DNA repair), Assay Code: RE2-, Evaluation Type: Evaluation A (Pre-1980)) “inactive; negative”; under setting [2], “no conclusion”; (Species/Cell Type: Human diploid fibroblasts, Assay Type: Unscheduled DNA synthesis (UDS) in vitro, DNA effects, Assay Code: UDH-, Evaluation Type: Evaluation A (Pre-1980)) “inactive; negative”; under setting [5], “inactive; negative”; (Species/Cell Type: Salmonella typhimurium (one or more of the five standard strains: TA98, TA100, TA1535, TA1537, and TA1538), Assay Type: Histidine reverse gene mutation, Ames assay, Assay Code: SAL-, Evaluation Type: Evaluation A (Pre-1980)) “inactive; negative”. Regarding `Cc1c2ccccc2c(C)c2c1ccc1cccc(F)c12`, the mutagenic call (Species/Cell Type: Chinese hamster lung (V79) cells, Assay Type: Forward gene mutation at the HPRT or ouabain locus, Assay Code: V79-*, Activation: With metabolic activation, Evaluation Type: Evaluation A (Pre-1980)) is “inactive; negative”. Turning to `NC(=S)NCCNC(N)=S`, the mutagenic call (Species/Cell Type: Salmonella typhimurium, Assay Type: Forward and reverse gene mutation, host-mediated assay, Assay Code: HMA+, Evaluation Type: Evaluation A (Pre-1980)) is “active; positive”. Regarding `O=NN(CCCl)C(=O)NCCCCO`, the mutagenic call (Species/Cell Type: Saccharomyces cerevisiae, Assay Type: Mitotic recombination or gene conversion, Assay Code: YEC+, Evaluation Type: Evaluation A (Pre-1980)) was “active; positive”. As for `BrCCCCCBr`, where the note is “Species/Cell Type: Escherichia coli polA (W3119 vs P3478), Assay Type: Rec-assay, DNA effects (bacterial DNA repair), Assay Code: RE1+, Evaluation Type: Evaluation A (Pre-1980)”, the mutagenic call was “active; positive”. On to `CN1CCN(CCCN2c3ccccc3Sc3ccc(C(F)(F)F)cc32)CC1`, for which the mutagenic call runs as follows: (Species/Cell Type: Hordeum vulgare (barley), Assay Type: Chromosome aberrations, Assay Code: HOC+, Evaluation Type: Evaluation A (Pre-1980)) “active; positive”; (Species/Cell Type: Mammalian polychromatic erythrocytes, Assay Type: Micronucleus test, chromosome aberrations, Assay Code: MNT+, Evaluation Type: Evaluation B (Post-1980)) “active; positive”. In the case of `Cc1cc2nc3cc(C)c(N)cc3[n+](-c3ccccc3)c2cc1N`, the mutagenic call (Species/Cell Type: Bacillus subtilis (H17 vs M45), Assay Type: Rec-assay, spot test, DNA effects (bacterial DNA repair), Assay Code: REWT, Evaluation Type: Evaluation A (Pre-1980)) was “no conclusion”. Regarding `O=C(CCl)c1ccccc1`, the mutagenic call (Species/Cell Type: Drosophila melanogaster, Assay Type: Sex-linked recessive lethal gene mutation, Assay Code: SRL-, Evaluation Type: Evaluation A (Pre-1980)) was “inactive; negative”. `O=S(O)S(=O)O`: the mutagenic call is given as “no conclusion” (Species/Cell Type: Human lymphocytes, Assay Type: Sister-chromatid exchange (SCE) in vitro, Assay Code: SCLT, Evaluation Type: Evaluation B (Post-1980)) and “no conclusion” (Species/Cell Type: Human, Assay Type: Sister-chromatid exchange (SCE) in vitro, Assay Code: SC1T, Evaluation Type: Evaluation B (Post-1980)). As for `CCn1c2cc(=N[N+]#N)ccc-2c2ccc(N=[N+]=[N-])cc2c1-c1ccccc1`, the mutagenic call runs as follows: (Species/Cell Type: Saccharomyces cerevisiae, Assay Type: Mitotic recombination or gene conversion, Assay Code: YECT, Evaluation Type: Evaluation A (Pre-1980)) “no conclusion”; under setting [5], “inactive; negative”; under setting [6], “no conclusion”.

Regarding `Cc1ccc2cccc(O)c2n1`, under setting [7], the mutagenic call is reported as “no conclusion”. Take `NC(Cc1ccc(Oc2ccc(N(CCCl)CCCl)cc2)cc1)C(=O)O` (stereo not given): under setting [8], the mutagenic call is “active; positive”.

For the compound `CC[n+]1c(-c2ccccc2)c2cc(N=[N+]=[N-])ccc2c2ccc(N)cc21`, the mutagenic call under setting [7] is reported as “no conclusion”.

`CC(Cl)(Cl)Cl`: the mutagenic call reads like this: (Species/Cell Type: Fischer rat embryo (RLV/1706) cells, Assay Type: Cell transformation, viral enhanced, Assay Code: CTR+, Evaluation Type: Evaluation A (Pre-1980)) “active; positive”; (Species/Cell Type: Mammalian polychromatic erythrocytes, Assay Type: Micronucleus test, chromosome aberrations, Assay Code: MNTT, Evaluation Type: Evaluation A (Pre-1980)) “no conclusion”; (Species/Cell Type: Mouse, Sex: Male, Assay Type: Sperm morphology, Assay Code: SPI-, Evaluation Type: Evaluation A (Pre-1980)) “inactive; negative”; under setting [3], “active; positive”. Further, where the note is “Species/Cell Type: Nonhuman, Assay Code: CCGT, Evaluation Type: Evaluation A (Pre-1980)”, the call is given as “no conclusion”. Turning to `Cc1cc(NC(=O)C2=C(O)c3ccccc3S(=O)(=O)N2C)no1`, the mutagenic call (Species/Cell Type: Human lymphocytes, Assay Type: Sister-chromatid exchange (SCE) in vivo, Assay Code: SCY+, Evaluation Type: Evaluation B (Post-1980)) was “active; positive”.

With `C=CC(=O)OC`, the mutagenic call under setting [1] is “active; positive”.

Turning to `O=C(O)c1ccccc1N=Nc1ccc(N(CCCl)CCCl)cc1`, under setting [8], the mutagenic call was “active; positive”. For `CC(C)(O)CCc1ccc(O)c2c(=O)c3c(O)c4c(cc3oc12)O[C@H]1OC=C[C@@]41O`, the mutagenic call (Species/Cell Type: Salmonella typhimurium (one or more of the five standard strains: TA98, TA100, TA1535, TA1537, and TA1538), Assay Type: Histidine reverse gene mutation, Ames assay, Assay Code: SAL+*, Activation: With metabolic activation, Evaluation Type: Evaluation A (Pre-1980)) was “active; positive”. Take `CCCCOC(=O)C=[N+]=[N-]`: the mutagenic call (Species/Cell Type: Arabidopsis species, Assay Type: Gene mutation, Assay Code: ARM+, Evaluation Type: Evaluation A (Pre-1980)) was “active; positive”. In the case of `C/C=C/c1ccccc1`, the mutagenic call was “active; positive” (Species/Cell Type: Human lymphocytes, Assay Type: Sister-chromatid exchange (SCE) in vitro, Assay Code: SCL+D, Dose Response: With dose response, Evaluation Type: Evaluation B (Post-1980)) and “active; positive” (Species/Cell Type: Human, Assay Type: Sister-chromatid exchange (SCE) in vitro, Assay Code: SC1+D, Dose Response: With dose response, Evaluation Type: Evaluation B (Post-1980)).

As to `O=C(c1ccccc1)C(O)c1ccccc1` (stereo not given), for the setting “Species/Cell Type: Nonhuman, Assay Code: CCG-L, Evaluation Type: Evaluation A (Pre-1980)”, the call is “inactive; negative”. On to `O=C(N[C@@H](CO)[C@@H](O)c1ccc([N+](=O)[O-])cc1)C(Cl)Cl`, for which the mutagenic call under setting [9] is “active; positive”. Same read-out and setting: with `Cl/C=C\CCl` the entry was “active; positive”.

In the case of `CO[C@H]1/C=C/O[C@@]2(C)Oc3c(C)c(O)c4c(O)c(c(/C=N/N5CCN(C)CC5)c(O)c4c3C2=O)NC(=O)/C(C)=C\C=C\[C@H](C)[C@H](O)[C@@H](C)[C@@H](O)[C@@H](C)[C@H](OC(C)=O)[C@@H]1C`, the mutagenic call under setting [4] is given as “no conclusion”. Take `COc1cc(/C=N/NC(=O)COc2ccc(Br)cc2CN2CCOCC2)ccc1O`: under setting [6], the mutagenic call is “no conclusion”. For the compound `O=S1(=O)OC(c2ccc(O)cc2)(c2ccc(O)cc2)c2ccccc21`, the mutagenic call (Species/Cell Type: Bacillus subtilis (H17 vs M45T), Assay Type: Rec-assay, spot test, DNA effects (bacterial DNA repair), Assay Code: REXT, Evaluation Type: Evaluation A (Pre-1980)) is on record as “no conclusion”.
